In PubChem BioAssay (NCI) one finds TGI data, which are given here for 24 compounds.

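All cell lines were grown in 96-well plates and treated with compound for 48 hours. Definition used: TGI = concentration required for complete inhibition of growth.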

Assay in all cases: inhibition of tumour cell growth, NCI panel, 48 h
Assay [1] concerns 786-0 renal.
For assay [2], the system named is ACHN renal.
For assay [3], the system named is DU-145 prostate.
Assay [4] relates to HCC-2998 colon.
The subject of assay [5] is HL-60(TB) leukemia.
Assay [6] deals with NCI-H226 lung.
Assay [7] has as its system PC-3 prostate.
Assay [8] relates to SF-295 CNS.
Assay [9] concerns SK-MEL-5 melanoma.
Assay [10] relates to SNB-75 CNS.
For assay [11], the system named is T-47D breast.
Assay [12] has as its system U251 CNS.

Regarding `C=CCOC(=O)C1=C(C)NC2=N[C@H](CCCCCCCCC)C[C@@H]3CCC1N23` (stereo partly drawn), the TGI in [1] stood at 39.3 µM; in assay [2] it was 44.4 µM; in [3], 67.8 µM; in assay [4], 48.4 µM; in [5], 69.4 µM; in assay [6], 36.6 µM. Besides, the TGI in [7] was 42.1 µM; in [8], above 100 µM; in assay [9], 34.4 µM; in assay [10], 83.5 µM; in assay [11], 60.2 µM; in assay [12], 40.5 µM.
For the compound `Cc1cc(=O)oc2cc(OCC(O)COC(C)C)ccc12` (stereo not drawn), the TGI in assay [1], in [2], in [3], in assay [4], in [5] and in [7] was above 100 µM throughout. Also, the TGI in assay [8], in [9], in assay [10], in [11] and in assay [12] was above 100 µM in each case.
Consider `CCN(CC)CCN(C)c1ccc(CO)c2c1C(=O)c1ccccc1S2=O` (stereo not drawn), for which the TGI in assay [1] is 3.22 µM; in assay [2] it was 23.8 µM; in assay [3], 28.3 µM; in assay [4], 2.99 µM; in assay [5], 51.8 µM; in assay [6], 33.6 µM. The TGI turned out to be 46 µM in [7]; 28 µM in assay [8]; 6.52 µM in [9]; 31.5 µM in [10]; 28.2 µM in assay [11]; 3.27 µM in [12].
On to `NC1CCC(N(CC(=O)O)CC(=O)O)C(N(CC(=O)O)CC(=O)O)C1` (stereo not drawn), for which the TGI in [2], in assay [3], in [4], in assay [5], in assay [6] and in assay [7] was above 100 µM in each case. Moreover, the TGI in [8], in assay [9], in assay [10], in assay [11] and in assay [12] was above 100 µM throughout.
Take `CC1=CC[C@@]2(C)CC[C@](O)(C(C)C)C2C(OC(=O)c2ccccc2)C1` (stereo partly drawn): the TGI in assay [1] came to 33.4 µM; in assay [2], 32.1 µM; in [3], 32.5 µM; in assay [4], 25 µM; in assay [5], 82.2 µM; in assay [6] it was 45.3 µM. Moreover, the TGI in assay [7] turned out to be 45.6 µM; in assay [8], 34.8 µM; in [9], 34.9 µM; in assay [10], 35.8 µM; in assay [11], 42.6 µM; in [12], 60 µM.
With `CN(C)c1c(C2OC(CO)C(O)C2O)c(=O)c1=O` (stereo not drawn), the TGI in assay [1], in assay [2], in assay [3], in assay [4], in assay [6] and in assay [7] was above 100 µM in each case. The TGI is above 55.4 µM in [8], above 100 µM in [10], above 100 µM in assay [11] and above 100 µM in assay [12].
Take `CCC(C)[C@@H](Nc1c(O)c2c(c(O)c1Cl)C(=O)C=CC2=O)C(=O)OC` (stereo partly drawn): the TGI in assay [1] was above 10 µM; in assay [2], above 10 µM; in assay [3], above 10 µM; in assay [4], above 10 µM; in [5] it was 5.93 µM; in assay [6], above 10 µM. Besides, the TGI in assay [7] is above 10 µM; in assay [8] it was above 10 µM; in assay [9], 4.51 µM; in [10], above 10 µM; in [11], above 10 µM; in assay [12], 8.83 µM.
As for `CC(Nc1ccc(Cl)c(Cl)c1)c1ccncc1` (stereo not drawn), the TGI was 60.5 µM in [1]; above 100 µM in [2]; 89.7 µM in assay [3]; 81.6 µM in assay [6]; 75.2 µM in assay [7]; 64.2 µM in assay [8]. The TGI was 30.3 µM in assay [9], 97.7 µM in assay [10], above 100 µM in assay [11] and 46.2 µM in assay [12].
On to `COC(C)(C)/C=C/c1[nH]c2ccccc2c1CC(=O)NCCc1cn(C(c2ccccc2)(c2ccccc2)c2ccccc2)cn1`, for which the TGI was 17.1 µM in [1]; above 100 µM in assay [2]; above 89.3 µM in assay [3]; 2.95 µM in [4]; 8.88 µM in [5]; 10.9 µM in assay [6]. Also, the TGI in [7] was 10.6 µM; in [8], above 31.3 µM; in assay [9], 7.36 µM; in [11] it was above 21.9 µM; in assay [12], 16.5 µM.
For `Nc1ncnc2c1ncn2C1CCC(CP(=O)(O)O)C1` (stereo not drawn), the TGI in [1], in [2], in assay [3], in assay [4], in [5] and in [6] was above 100 µM each time. Moreover, the TGI in [7], in assay [8], in assay [9], in [11] and in [12] was above 100 µM in each case.
For `CCOP(=O)(OCC)C(NC(=O)C(C(F)(F)F)C(F)(F)F)c1ccccc1` (stereo not drawn), the TGI in assay [1] is above 100 µM; in assay [2] it was above 100 µM; in [3], above 100 µM; in [4], above 100 µM; in [5], 67.9 µM; in assay [7] it was above 100 µM. The TGI in assay [8], in assay [9], in [10], in assay [11] and in [12] was above 100 µM throughout.
On to `COC(=O)c1cc(NC(=O)Cc2c[nH]c3ccccc23)cn1C`, for which the TGI in assay [1], in assay [2], in [3], in assay [4], in assay [5] and in assay [6] was above 100 µM throughout. In addition, the TGI in [7], in [8], in assay [9], in assay [11] and in [12] was above 100 µM throughout.
`CCOP(=O)(OCC)C(C(=O)OC)C(=O)C(=O)Nc1cccc(O)c1` (stereo not drawn): the TGI in assay [1], in assay [2], in [3], in assay [4], in assay [6] and in assay [7] was above 100 µM throughout. Besides, the TGI in [8], in assay [9], in assay [10], in assay [11] and in [12] was above 100 µM each time.
Turning to `C=C1C(=O)O[C@H]2C1C[C@@H](OC(C)=O)/C(C)=C/CC[C@@]1(C)O[C@H]21` (stereo partly drawn), the TGI in assay [1] stood at 23.9 µM; in assay [2] it was 15.2 µM; in assay [3], 27.8 µM; in assay [4], 27.9 µM; in assay [7] it was 31.3 µM; in assay [8], 50.9 µM. The TGI in assay [9] was 18.4 µM; in [10], 62.7 µM; in [11] it was 21.5 µM; in [12], above 100 µM.
For the compound `COc1ccccc1C(O)[C@@H]1C[C@@H]2[C@H]3CC[C@@](C)([C@@H]2O1)C3(C)C` (stereo partly drawn), the TGI in assay [1] worked out at 32.7 µM; in assay [2], 35.4 µM; in assay [3], 49.6 µM; in [4], 41.8 µM; in assay [5], 49.1 µM; in assay [7] it was 45.2 µM. For the same compound, the TGI worked out at 34.6 µM in assay [8]; 31.6 µM in assay [9]; 37.7 µM in [10]; 41.3 µM in assay [11]; 32.1 µM in assay [12].
Consider `N[C@@H]1CCN(c2c(F)cc3c(=O)c(C(=O)O)cn4c3c2Oc2cc3c(ccc5ccccc53)cc2-4)C1`, for which the TGI in assay [1] is above 100 µM; in assay [2], above 41.7 µM; in assay [3], above 100 µM; in assay [5], above 59.9 µM; in [6], above 100 µM; in assay [7], above 28.2 µM. Moreover, the TGI in [8] was above 100 µM; in [9] it was above 40 µM; in assay [10], above 100 µM; in assay [11], 31.3 µM; in [12], 5.04 µM.
Consider `O=C(c1ccccc1)N1CCC(CC2(c3cc4ccccc4[nH]3)OCCO2)CC1`, for which the TGI in [1] was 34.7 µM; in assay [2], above 100 µM; in assay [3] it was above 100 µM; in assay [6] it was above 100 µM; in assay [7], above 100 µM; in assay [8], above 100 µM. The TGI is 42.3 µM in assay [9], above 100 µM in assay [10], above 100 µM in assay [11] and above 100 µM in assay [12].
For `COc1cccc(C2SC(N)=Nc3c2c(C)nn3C(=O)Cc2ccccc2)c1` (stereo not drawn), the TGI in assay [1], in [2], in [3], in assay [4], in [5] and in assay [6] was above 100 µM throughout. Also, the TGI in assay [7], in assay [8], in assay [9], in assay [10] and in assay [11] was above 100 µM throughout.
`[B-][P+](CC[P+]1([B-])[C@@H](C)[C@@H](O)[C@H](O)[C@@H]1C)(c1ccccc1)c1ccccc1OC` (stereo partly drawn): the TGI in [1] is 60.8 µM; in [2], 31.6 µM; in [3], 33.7 µM; in [5], 54 µM; in [6] it was 31.8 µM; in [7], 35.6 µM. In addition, the TGI is 29.4 µM in assay [8]; 29.3 µM in assay [9]; 28.3 µM in assay [10]; 37.3 µM in assay [11]; 30.6 µM in assay [12].
As for `CCOC(=O)/C=C(/C(=O)OCC)n1ccc(=O)n(Cc2cnnn2COCCOC(C)=O)c1=O`, the TGI in [1] stood at 29.2 µM; in assay [2], 22.1 µM; in [3], 42.9 µM; in assay [4], 31.5 µM; in [6] it was 57.3 µM; in assay [7], 34.2 µM. Moreover, the TGI in [8] is above 100 µM; in [9] it was 38.2 µM; in assay [10] it was above 100 µM; in [11] it was 29.2 µM; in assay [12] it was 37.8 µM.
For the compound `O=C1CC(CC(=O)c2ccc(Br)cc2)C(=O)/C1=C(/O)c1ccc(Br)cc1` (stereo not drawn), the TGI in assay [1], in assay [2], in assay [3], in assay [4], in assay [5] and in [6] was above 100 µM in each case. The TGI in assay [7], in [8], in assay [9], in assay [11] and in [12] was above 100 µM each time.
For the compound `O=[S@]1c2ccc3ccccc3c2N[C@@H]2[C@H]1[C@H]1C=C[C@@H]2C1`, the TGI in assay [1] was above 100 µM; in assay [2] it was above 100 µM; in [3] it was above 100 µM; in assay [5], 63 µM; in [6], above 100 µM; in assay [7] it was above 100 µM. Besides, the TGI in assay [8] was above 100 µM; in assay [9], above 100 µM; in [10] it was 73.4 µM; in [11] it was above 100 µM; in assay [12] it was above 100 µM.
For `O=Cc1cc(C(=O)OCc2ccccc2)n(S(=O)(=O)c2ccccc2)c1`, the TGI in assay [1] is above 100 µM; in assay [2] it was 36.6 µM; in assay [3], above 100 µM; in assay [4] it was 33.7 µM; in assay [5], 63 µM; in assay [7], 53.6 µM. Further, the TGI in assay [8] is 29 µM; in assay [9], 20.2 µM; in assay [10] it was 82.1 µM; in [11] it was above 100 µM.
For `COc1ccc2c(c1)/C(=C\c1c(Cl)[nH]c3ccccc13)C(=O)N2`, the TGI stood at 17 µM in assay [1]; 20.8 µM in assay [2]; 56.7 µM in assay [3]; 13.3 µM in assay [4]; 10.8 µM in assay [5]; 70.8 µM in assay [6]. For the same compound, the TGI in assay [7] was 18 µM; in [8] it was 6.26 µM; in assay [9], 14.8 µM; in assay [11], above 100 µM; in [12] it was 13.2 µM.
